Six molecules from US20240025863A1, “SOS1 PROTEIN DEGRADERS, PHARMACEUTICAL COMPOSITIONS THEREOF, AND THEIR THERAPEUTIC APPLICATIONS” (BioTheryX, Inc., priority 2020, published 2024) can be followed below.

Holding throughout (type): cell-based
For experiment [1], the system named is SW480 cells (G12V). As to the kind of experiment: Cell viability assay (CellTiter-Glo), SW480 cells. The conditions noted are these: Homo sapiens, 72 h; SW480 cells, 3 days incubation, CellTiter-Glo luminescence; read-out: Inhibition of Cancerous Cells IC50 SW480 (G12V). As for the experimental part:
(§1) H358, H23, SW48, and AsPC-1 cells were cultured in RPMI 1640 media supplemented with 10% fetal bovine serum, streptomycin, and penicillin. Lovo and SW480 cells were cultured in DMEM media supplemented with 10% fetal bovine serum, streptomycin, and penicillin. The cell lines were plated in their respective medium supplemented with 2.5% fetal bovine serum, streptomycin, and penicillin. All cell lines were plated in white walled 96-well plates at 2,000 cells/well or 384-well plates at 500 cells/well, except Lovo, which were plated at 4,000 or 1,000 cells/well, respectively. The cells were incubated in DMSO (control) or a compound for 3 days at 37° C. under 5% CO2. A CELLTITER-GLO® reagent (100 μL) was then added to each well. After a 10 min incubation with shaking, luminescence was measured using an ENVISION® multimode plate reader.
In general terms: In ATP-based viability assays light output follows the ATP content of the culture.

For experiment [2], the system named is H358 cells (G12C). As to the kind of experiment: Cell viability assay (CellTiter-Glo), H358 cells. The conditions noted are these: Homo sapiens, NCI-H358, 72 h; H358 cells, 3 days incubation, CellTiter-Glo luminescence; read-out: Inhibition of Cancerous Cells IC50 H358 (G12C). Here is the method:
as §1

Experiment [3] relates to SW48 cells (wt). As to the kind of experiment: Cell viability assay (CellTiter-Glo), SW48 cells. The conditions noted are these: Homo sapiens, 72 h; SW48 cells, 3 days incubation, CellTiter-Glo luminescence; read-out: Inhibition of Cancerous Cells IC50 SW48 (wt). Here is the method:
as §1

The subject of experiment [4] is Lovo cells (G13D). As to the kind of experiment: Cell viability assay (CellTiter-Glo), Lovo cells. The conditions noted are these: Homo sapiens, 72 h; Lovo cells, 3 days incubation, CellTiter-Glo luminescence; read-out: Inhibition of Cancerous Cells IC50 Lovo (G13D). As for the experimental part:
as §1

Regarding `CNCc1ccccc1-c1csc([C@H](C)Nc2nc(C)nc3cc(OCCCCCCCN4CCC(c5cc6c(cc5F)C(=O)N(C5CCC(=O)NC5=O)C6)CC4)c(OC)cc23)c1` (stereo partly drawn) [Compound A26, 3-(6-Fluoro-5-(1-(7-((6-methoxy-2-methyl-4-(((S)-1-(4-(2-((methylamino)-methyl)phenyl)thiophen-2-yl)ethyl)amino)quinazolin-7-yl)oxy)heptyl)piperidin-4-yl)-1-oxoisoindolin-2-yl)piperidine-2,6-dione], the IC50 worked out at 0.4 µM in experiment [1], 0.57 µM in experiment [2], 0.42 µM in experiment [3] and 0.36 µM in experiment [4].
Regarding `COc1cc2c(N[C@H](C)c3cccc(Br)c3)nc(C)nc2cc1OCCCCCCCCCCCN1CCC(c2cc3c(cc2F)C(=O)N(C2CCC(=O)NC2=O)C3)CC1` (stereo partly drawn) [Compound A24, 3-(5-(1-(11-((4-(((R)-1-(3-Bromophenyl)ethyl)amino)-6-methoxy-2-methyl-quinazolin-7-yl)oxy)undecyl)piperidin-4-yl)-6-fluoro-1-oxoisoindolin-2-yl)piperidine-2,6-dione], the IC50 in experiment [1] is 0.55 µM; in experiment [2] it was 1.2 µM; in experiment [3] it was 1.3 µM; in experiment [4], 0.4 µM.
With `COc1cc2c(N[C@H](C)c3cccc(Br)c3)nc(C)nc2cc1OCCCCCN1CCN(C(=O)COc2cc(F)cc3c2CN(C2CCC(=O)NC2=O)C3=O)CC1` (stereo partly drawn) [Compound A14, 3-(4-(2-(4-(5-((4-(((R)-1-(3-Bromophenyl)ethyl)amino)-6-methoxy-2-methyl-quinazolin-7-yl)oxy)pentyl)piperazin-1-yl)-2-oxoethoxy)-6-fluoro-1-oxoisoindolin-2-yl)-piperidine-2,6-dione], the IC50 in experiment [1] was 5 µM; in experiment [2], 4.5 µM; in experiment [3], 3.1 µM; in experiment [4], 2.8 µM.
As for `COc1cc2c(N[C@H](C)c3cccc(Br)c3)nc(C)nc2cc1OCCCCCN1CCC(c2cc(F)cc3c2CN(C2CCC(=O)NC2=O)C3=O)CC1` (stereo partly drawn) [Compound A11, 3-(4-(1-(5-((4-(((R)-1-(3-Bromophenyl)ethyl)amino)-6-methoxy-2-methyl-quinazolin-7-yl)oxy)pentyl)piperidin-4-yl)-6-fluoro-1-oxoisoindolin-2-yl)piperidine-2,6-dione], the IC50 in experiment [1] was found to be 0.56 µM; in experiment [2] it was 1.6 µM; in experiment [3], 0.51 µM; in experiment [4], 0.41 µM.
Regarding `CNCc1ccccc1-c1csc([C@H](C)Nc2nc(C)nc3cc(OCCCCCCCN4CCC(c5cc(F)cc6c5CN(C5CCC(=O)N(C)C5=O)C6=O)CC4)c(OC)cc23)c1` (stereo partly drawn) [Compound A53, 3-(6-Fluoro-4-(1-(7-((6-methoxy-2-methyl-4-(((S)-1-(4-(2-((methylamino)-methyl)phenyl)thiophen-2-yl)ethyl)amino)quinazolin-7-yl)oxy)heptyl)piperidin-4-yl)-1-oxoisoindolin-2-yl)-1-methylpiperidine-2,6-dione], the IC50 was 0.17 µM in experiment [1], 0.23 µM in experiment [2], 0.17 µM in experiment [3] and 0.068 µM in experiment [4].
For `COc1cc2c(N[C@H](C)c3cccc(Br)c3)nc(C)nc2cc1OCCCCCCCCCOc1cc(-c2scnc2C)ccc1CNC(=O)[C@@H]1C[C@@H](O)CN1C(=O)[C@@H](NC(C)=O)C(C)(C)C` [Compound D12, (2S,4R)-1-((S)-2-acetamido-3,3-dimethylbutanoyl)-N-(2-((9-((4-(((R)-1-(3-bromophenyl)ethyl)amino)-6-methoxy-2-methylquinazolin-7-yl)oxy)nonyl)oxy)-4-(4-methylthiazol-5-yl)benzyl)-4-hydroxypyrrolidine-2-carboxamide], the IC50 in experiment [1] was 3.5 µM; in experiment [2], 4.3 µM; in experiment [3], 5.4 µM; in experiment [4], 3.1 µM.

One may read the IC50 as the concentration that gives 50% inhibition.
